Consider two molecules from patent US9884818B2, “Sulphamoylpyrrolamide derivatives and the use thereof as medicaments for the treatment of hepatitis B” (Janssen Sciences Ireland UC, priority 2013, dated 2018).

The test system of series [1] is HBV. Kind of series: Anti-HBV activity, HepG2.117 inducibly HBV producing cell line (Tet-off), intracellular HBV DNA by realtime PCR. In kind it is cell-based. The note with it: HepG2.117 cells, 3 days of treatment, intracellular HBV DNA; read-out: HepG2 117 EC50.
Series [2] relates to HBV. Put plainly: Anti-HBV activity, HepG2.2.15 stable transfected cell line, HBV DNA from secreted virions by realtime PCR. Particulars: HepG2.2.15 cells, 6 days of treatment, HBV DNA from secreted virions; read-out: HepG2 2.15 EC50. Type of series: cell-based.
Series [3] relates to HepG2 cells. Put plainly: Cytotoxicity in HepG2 cells, Resazurin viability assay. Particulars: read-out: HepG2 4 days CC50; HepG2 cells, incubated for 4 days, Resazurin assay. A general note: Resazurin is reduced to fluorescent resorufin, in cell work by metabolically active cells.

Take `CC(NS(=O)(=O)c1cc(C(=O)Nc2ccc(F)c(C#N)c2)n(C)c1)C(F)F` (single isomer, unassigned) [Compound 200b, N-(3-Cyano-4-fluorophenyl)-4-{[2,2-difluoro-1-methylethyl]sulfamoyl}-1-methyl-1H-pyrrole-2-carboxamide]: the EC50 (commonly the concentration that produces a half-maximal response) turned out to be 0.1 µM in series [1] and 0.09 µM in series [2]. The CC50 (usually the concentration at which the toxic effect on the cells reaches its halfway point) in series [3] was over 25 µM.

Consider `Cn1cc(S(=O)(=O)NC2CCCC2(F)F)cc1C(=O)Nc1ccc(F)c(Cl)c1F` (single isomer, unassigned) [Compound 236b, N-(3-Chloro-2,4-difluorophenyl)-4-{[2,2-difluorocyclopentyl]sulfamoyl}-1-methyl-1H-pyrrole-2-carboxamide], for which the EC50 came to 0.05 µM in series [1] and 0.06 µM in series [2]. For the same molecule, the CC50 in series [3] was over 25 µM.
